Measurements from PubChem BioAssay AID2060898 (Molecular Pharmacology Branch, DTP, NCI, 2025).

Tested on: 616215-338-R-J1-PDC complex spheroid viability
Assay: Anticancer human tumor 616215-338-R-J1-PDC patient-derived colon adenocarcinoma cell line growth inhibition [RAS]
Conditions: for IC50: curve of first compound; for viability, T/C: stronger effect = lower value
From the text: RAS pathway inhibitors in Combinations in Complex Spheroids
A high-throughput screen of multi-cell type tumor spheroids was designed to identify active combinations of RAS pathway inhibitors and targeted small molecules. Complex spheroids include a stromal component modeled by human endothelial cells (HUVEC) and fibroblasts modeled by human mesenchymal stem cells (MSCs). The concentration ranges selected for each drug and investigational agent were based upon clinically achievable concentrations if the clinical Cmax of the agent was known.
Compounds. The drugs and investigational agents: abemaciclib (NSC768073), cobimetinib (NSC768068), divarasib (GDC6063, NSC841802), docetaxel (NSC628503), GDC-1971 (RLY-1971, NSC841576), gemcitabine (NSC613327), inavolisib (NSC800729), ipatasertib (NSC767898), KB-0742 (NSC834161), MRTX-1133 (NSC836407), osimertinib (NSC779217), RMC-4630 (NSC839698), RMC-6236 (NSC851965), RMC-6291 (NSC852671), Ro-3306 (NSC812927), sapanisertib (NSC764658), SN-38 (NSC673596), staurosporine (NSC755774), SY5609 (NSC837396), and tovorafenib (DAY101, NSC766906), were obtained from the National Cancer Institute (NCI) Developmental Therapeutics Program Chemical Repository. The FDA-approved anticancer drug set is available from the NCI Developmental Therapeutics Program. […] The stock solutions were prepared in dimethyl sulfoxide (DMSO, Sigma-Aldrich, St. Louis, MO, cat. D2650) at 800-fold the tested concentration and stored at -70 degrees C prior to their use. All drugs and investigational agents were tested over a range starting from a high concentration at or near the clinical Cmax and decreasing in half-log increments. If the clinical Cmax for an agent had not been determined, the highest concentration tested was 10 microM.
Cell Culture. All cells were maintained in an incubator at 37 degrees C and 5% CO2 with 95% humidity. The PDC lines were cultured according to standard operating procedures established by the NCI PDMR. All PDCs were thawed and cultured in Matrigel-coated flasks prepared with a working solution of 1X Ham's F-12 nutrient mix, without supplementation (Invitrogen, Waltham, MA, cat. 11765054), 100 U/mL penicillin-streptomycin (Invitrogen, cat. 15140122), and 2.5% Matrigel (Corning Inc., Corning, NY, cat. 354248) for the first three passages. The 362531-283-R-J2-PDC and 782815-120-R-J1-PDC lines were cultured in 6C/Colon 1B media, which includes advanced DMEM/F-12 (Thermo Fisher Scientific, cat. 12634028), 10 mM HEPES (Thermo Fisher Scientific, cat. 15630080), 1X GlutaMAX supplement (Thermo Fisher Scientific, cat. 35050061), 0.1 mg/mL primocin (InvivoGen, San Diego, CA, cat. ant-pm-2), 10% defined fetal bovine serum, heat inactivated (HyClone Laboratories Inc., Logan, UT, cat. SH30070.03HI), 50% L-WRN conditioned media (ATCC, cat. CRL-3276), 1.25 mM N-Acetyl-L-cysteine (Sigma-Aldrich, cat. A9165), 10 mM nicotinamide (Sigma-Aldrich, cat. N0636), 1X B-27 supplement (Thermo Fisher Scientific, cat. 17504044), 1X N-2 supplement (Thermo Fisher Scientific, cat. 17502048), 50 ng/mL human EGF (Thermo Fisher Scientific, cat. PHG0311), and 10 microM Y-27632 dihydrochloride (Tocris Bioscience, cat. 1254). The K12877-001-R-J1-PDC line was cultured in 6I media, which includes all 6C/Colon 1B media plus 10 ng/mL human FGF-10 (PeproTech, cat. 100-26), 1 ng/mL human FGF-2 (PeproTech, cat. 100-18B), 1 µM prostaglandin E2 (Tocris Bioscience, cat. 2296), […] hydrocortisone (Sigma-Aldrich, cat. H4001), and […] bovine insulin (Sigma-Aldrich, cat. I6634). The K86415-001-R-J1-PDC line was cultured in 6D media, which includes all 6C/Colon 1B media components minus the L-WRN conditioned media. The 485176-168-R4-J1-PDC was cultured in PANC media, which includes all 6C/Colon 1B media plus 100 ng/mL human FGF-10 (PeproTech, cat. 100-26), 500 nM SB-431542 (Selleckchem, cat. S1067), and 10 nM gastrin (Tocris Bioscience, cat. 3006). […]

[1] = second compound 0.0316 µM, first compound 0.0316 µM
[2] = second compound 0.0316 µM, first compound 0.1 µM
[3] = second compound 0.1 µM, first compound 0.0316 µM
[4] = second compound 0.1 µM, first compound 0.1 µM
[5] = second compound 0.316 µM, first compound 0.0316 µM
[6] = second compound 0.316 µM, first compound 0.1 µM
[7] = second compound 1 µM, first compound 0.0316 µM
[8] = second compound 1 µM, first compound 0.1 µM
[9] = second compound 3.16 µM, first compound 0.0316 µM
[10] = second compound 3.16 µM, first compound 0.1 µM
[11] = second compound 10 µM, first compound 0.0316 µM
[12] = second compound 10 µM, first compound 0.1 µM
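Also: spheroids exposed to agents for seven days before viability readout.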
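For viability, T/C in this document: 100% = DMSO vehicle control viability.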

CC(C)n1nc(-c2ccc3oc(N)nc3c2)c2c(N)ncnc21 + C#Cc1c(F)ccc2cc(O)cc(-c3ncc4c(N5CC6CCC(C5)N6)nc(OCC56CCCN5CC(F)C6)nc4c3F)c12
IC50 (second compound 0.0316 µM): > 100 nM
IC50 (second compound 0.1 µM): > 100 nM
IC50 (second compound 0.316 µM): > 100 nM
IC50 (second compound 1 µM): > 100 nM
IC50 (second compound 3.16 µM): 59.9 nM
IC50 (second compound 10 µM): 13.9 nM
viability, T/C (second compound 0.0316 µM, first compound 0.000316 µM): 113%
viability, T/C (second compound 0.0316 µM, first compound 0.001 µM): 119%
viability, T/C (second compound 0.0316 µM, first compound 0.00316 µM): 112%
viability, T/C (second compound 0.0316 µM, first compound 0.01 µM): 114%
viability, T/C [1]: 104%
viability, T/C [2]: 57.1%
viability, T/C (second compound 0.1 µM, first compound 0.000316 µM): 116%
viability, T/C (second compound 0.1 µM, first compound 0.001 µM): 107%
viability, T/C (second compound 0.1 µM, first compound 0.00316 µM): 113%
viability, T/C (second compound 0.1 µM, first compound 0.01 µM): 106%
viability, T/C [3]: 107%
viability, T/C [4]: 58%
viability, T/C (second compound 0.316 µM, first compound 0.000316 µM): 116%
viability, T/C (second compound 0.316 µM, first compound 0.001 µM): 111%
viability, T/C (second compound 0.316 µM, first compound 0.00316 µM): 112%
viability, T/C (second compound 0.316 µM, first compound 0.01 µM): 112%
viability, T/C [5]: 99.9%
viability, T/C [6]: 54.9%
viability, T/C (second compound 1 µM, first compound 0.000316 µM): 118%
viability, T/C (second compound 1 µM, first compound 0.001 µM): 111%
viability, T/C (second compound 1 µM, first compound 0.00316 µM): 121%
viability, T/C (second compound 1 µM, first compound 0.01 µM): 116%
viability, T/C [7]: 111%
viability, T/C [8]: 54.2%
viability, T/C (second compound 3.16 µM, first compound 0.000316 µM): 86.8%
viability, T/C (second compound 3.16 µM, first compound 0.001 µM): 105%
viability, T/C (second compound 3.16 µM, first compound 0.00316 µM): 98.3%
viability, T/C (second compound 3.16 µM, first compound 0.01 µM): 77.9%
viability, T/C [9]: 67.9%
viability, T/C [10]: 37.2%
viability, T/C (second compound 10 µM, first compound 0.000316 µM): 76.8%
viability, T/C (second compound 10 µM, first compound 0.001 µM): 64.2%
viability, T/C (second compound 10 µM, first compound 0.00316 µM): 68.2%
viability, T/C (second compound 10 µM, first compound 0.01 µM): 49.2%
viability, T/C [11]: 44.2%
viability, T/C [12]: 27.9%

CC(Nc1ccc2c(c1)OCCn1cc(N3C(=O)OCC3C(F)F)nc1-2)C(N)=O (centres undefined) + C#Cc1c(F)ccc2cc(O)cc(-c3ncc4c(N5CC6CCC(C5)N6)nc(OCC56CCCN5CC(F)C6)nc4c3F)c12
IC50 (second compound 0.0316 µM): > 10000 nM
IC50 (second compound 0.1 µM): > 10000 nM
IC50 (second compound 0.316 µM): > 10000 nM
IC50 (second compound 1 µM): > 10000 nM
IC50 (second compound 3.16 µM): > 10000 nM
IC50 (second compound 10 µM): < 31.6 nM
viability, T/C [1]: 98.9%
viability, T/C [2]: 132%
viability, T/C (second compound 0.0316 µM, first compound 0.316 µM): 104%
viability, T/C (second compound 0.0316 µM, first compound 1 µM): 104%
viability, T/C (second compound 0.0316 µM, first compound 3.16 µM): 101%
viability, T/C (second compound 0.0316 µM, first compound 10 µM): 73%
viability, T/C [3]: 104%
viability, T/C [4]: 115%
viability, T/C (second compound 0.1 µM, first compound 0.316 µM): 113%
viability, T/C (second compound 0.1 µM, first compound 1 µM): 106%
viability, T/C (second compound 0.1 µM, first compound 3.16 µM): 98.5%
viability, T/C (second compound 0.1 µM, first compound 10 µM): 78.2%
viability, T/C [5]: 102%
viability, T/C [6]: 122%
viability, T/C (second compound 0.316 µM, first compound 0.316 µM): 111%
viability, T/C (second compound 0.316 µM, first compound 1 µM): 108%
viability, T/C (second compound 0.316 µM, first compound 3.16 µM): 101%
viability, T/C (second compound 0.316 µM, first compound 10 µM): 76.8%
viability, T/C [7]: 116%
viability, T/C [8]: 115%
viability, T/C (second compound 1 µM, first compound 0.316 µM): 106%
viability, T/C (second compound 1 µM, first compound 1 µM): 100%
viability, T/C (second compound 1 µM, first compound 3.16 µM): 98.1%
viability, T/C (second compound 1 µM, first compound 10 µM): 73.8%
viability, T/C [9]: 73.4%
viability, T/C [10]: 84.4%
viability, T/C (second compound 3.16 µM, first compound 0.316 µM): 81.3%
viability, T/C (second compound 3.16 µM, first compound 1 µM): 85.8%
viability, T/C (second compound 3.16 µM, first compound 3.16 µM): 91.5%
viability, T/C (second compound 3.16 µM, first compound 10 µM): 65.6%
viability, T/C [11]: 50.7%
viability, T/C [12]: 38.7%
viability, T/C (second compound 10 µM, first compound 0.316 µM): 34%
viability, T/C (second compound 10 µM, first compound 1 µM): 43.4%
viability, T/C (second compound 10 µM, first compound 3.16 µM): 31.6%
viability, T/C (second compound 10 µM, first compound 10 µM): 34.3%
